Experimental findings from patent publication US7105541B2, “Naphthyl compounds, intermediates, compositions, and methods of use” (Eli Lilly and Company, priority 1996, dated 2006) are described below.

The data set deals with ovariectomized rats. Kind of data set: ovariectomized rat model of postmenopausal hyperlipidemia (serum cholesterol, uterine weight, uterine eosinophil peroxidase). It counts as in vivo. An excerpt:
Experimental models of postmenopausal hyperlipidemia are known in the art. Germane to this invention is the ovariectomized rat model which is detailed in U.S. Pat. No. 5,464,845. Data presented in Table 1 show comparative results among ovariectomized rats, rats treated with 17-α-ethynyl estradiol (EE2), and rats treated with certain compounds of this invention. […] This uterine response to estrogen is well recognized in the art.
Not only did the compounds of the present invention reduce serum cholesterol compared to the ovariectomized animals, but the uterine weight was increased to lesser extent than those given EE2. Compared to estrogenic compounds known in the art, the benefit of serum cholesterol reduction while lessening the effect on uterine weight is unusual and desirable.
As expressed in the data below, estrogenicity also was assessed by evaluating the response of eosinophil infiltration into the uterus.
The data presented in Table 1 reflect the response per treatment group.

Where [1] appears, read: orally administered at 0.1 mg/kg/day, ovariectomized rats.
Where [2] appears, read: ovariectomized rats, 0.1 mg/kg PO.
The mark [3] stands for this setting: ovariectomized rats, 0.01 mg/kg PO.
Where [4] appears, read: ovariectomized rats, 1.0 mg/kg PO.
The mark [5] stands for this setting: ovariectomized rats, 10.0 mg/kg PO.

Structures can show the parent of a compound that is named as a salt. Marks after values point to notes of the source that are not given here.

For the molecule `C#C[C@]1(O)CC[C@H]2[C@@H]3CCc4cc(O)ccc4[C@H]3CC[C@@]21C` [EE2, 17-α-Ethynyl-estradiol, reference compound], under setting [1], the “serum cholesterol (in words)” value is “caused a decrease in serum cholesterol” and the “uterine weight versus ovariectomized animals (in words)” value is reported as “substantially greater than the uterine weight of the ovariectomized animals”. Under setting [2], the “Serum Cholest. % Dec. (decrease versus ovariectomized controls)” value is 88.1* %; the “Uterine Eosinophil (Vmax), eosinophil peroxidase” value (from here on “Uterine Eosinophil (Vmax)”) is given as 174.3*; the “Uterine Weight % Inc (increase versus the ovariectomized controls)” value was 138.8* %. Moreover, the “eosinophil infiltration into the uterus (in words)” value (stromal layer of ovariectomized rat uteri) was “substantial and expected increase in eosinophil infiltration”.

Regarding `COc1cccc(-c2ccc3cc(OC)ccc3c2Oc2ccc(OCCN3CCCCC3)cc2)c1.Cl` [Example 1, 1-[4-[2-(1-piperidinyl)ethoxy]phenoxy]-2-(3-methoxyphenyl)-6-methoxynaphthalene hydrochloride], under setting [3], the “Serum Cholest. % Dec. (decrease versus ovariectomized controls)” value was 12.1%; the “Uterine Eosinophil (Vmax)” value was found to be 2.1; the “Uterine Weight % Inc (increase versus the ovariectomized controls)” value is 9.6%. Moreover, under setting [2], the “Serum Cholest. % Dec. (decrease versus ovariectomized controls)” value is on record as 55.6* %; the “Uterine Eosinophil (Vmax)” value is given as 4.8; the “Uterine Weight % Inc (increase versus the ovariectomized controls)” value stood at 21.9%. Under setting [4], the “Serum Cholest. % Dec. (decrease versus ovariectomized controls)” value is 60.5* %; the “Uterine Eosinophil (Vmax)” value is listed as 4.8; the “Uterine Weight % Inc (increase versus the ovariectomized controls)” value is 35.8* %.

As to `COc1cccc(-c2ccc3ccccc3c2Oc2ccc(OCCN3CCCCC3)cc2)c1.Cl` [Example 2, 1-[4-[2-(1-piperidinyl)ethoxy]phenoxy]-2-(3-methoxyphenyl)naphthalene hydrochloride], under setting [2], the “Serum Cholest. % Dec. (decrease versus ovariectomized controls)” value is given as 59.6* %; the “Uterine Eosinophil (Vmax)” value was found to be 4.5; the “Uterine Weight % Inc (increase versus the ovariectomized controls)” value is listed as 42.7* %. In addition, under setting [4], the “Serum Cholest. % Dec. (decrease versus ovariectomized controls)” value is recorded as 66.2* %; the “Uterine Eosinophil (Vmax)” value is given as 7.8; the “Uterine Weight % Inc (increase versus the ovariectomized controls)” value was 43.8* %. Further, under setting [5], the “Serum Cholest. % Dec. (decrease versus ovariectomized controls)” value is listed as 59.0* %; the “Uterine Eosinophil (Vmax)” value came out at 4.5; the “Uterine Weight % Inc (increase versus the ovariectomized controls)” value is 37.2* %.

For `Cl.Oc1cccc(-c2ccc3cc(O)ccc3c2Oc2ccc(OCCN3CCCCC3)cc2)c1` [Example 3, 1-[4-[2-(1-piperidinyl)ethoxy]phenoxy]-2-(3-hydroxyphenyl)-6-hydroxynaphthalene hydrochloride], under setting [2], the “Serum Cholest. % Dec. (decrease versus ovariectomized controls)” value is 26.3* %; the “Uterine Eosinophil (Vmax)” value turned out to be 4.8; the “Uterine Weight % Inc (increase versus the ovariectomized controls)” value amounted to 10.4%. Besides, under setting [4], the “Serum Cholest. % Dec. (decrease versus ovariectomized controls)” value is 45.7* %; the “Uterine Eosinophil (Vmax)” value is listed as 3.0; the “Uterine Weight % Inc (increase versus the ovariectomized controls)” value is listed as 15.3%. Further, under setting [5], the “Serum Cholest. % Dec. (decrease versus ovariectomized controls)” value is reported as 22.9%; the “Uterine Eosinophil (Vmax)” value came out at 1.2; the “Uterine Weight % Inc (increase versus the ovariectomized controls)” value came out at 3.9%.

As for `O=C(c1ccc(OCCN2CCCCC2)cc1)c1c(-c2ccc(O)cc2)sc2cc(O)ccc12` [Raloxifene, [2-(4-hydroxyphenyl)-6-hydroxybenzo[b]thien-3-yl] [4-[2-(1-piperdinyl)ethoxy]phenyl]methanone hydrochloride, reference compound], under setting [2], the “Serum Cholest. % Dec. (decrease versus ovariectomized controls)” value is recorded as 49.3* %; the “Uterine Eosinophil (Vmax)” value is listed as 5.4; the “Uterine Weight % Inc (increase versus the ovariectomized controls)” value is 23.5%.
